Test results as given in patent US20150336977A1 (B.G. NEGEV TECHNOLOGIES AND APPLICATIONS LTD., priority 2013, published 2015).
Where two headings read alike, the source gives them in different places.

Tested on: MCF-7 cells
Assay: MTT proliferation assay in estrogen-dependent MCF-7 breast cancer cells
Assay type: cell-based
Details: for estrogenic activity relative to natural compound 1: comparison with coumestrol (compound 1)
Description: MCF-7 cells and MDA-MB-231 cells were maintained in Costar T75 flasks with Dulbeccos Modified Eagle Medium (DMEM) supplemented with 2 mM glutamine and 10% fetal bovine serum (Biological Industries Beit Haemek, LTD).
To deplete cells of estrogens, they were passaged for 1 week in phenol red-free DMEM supplemented with 10% estrogen-depleted calf serum (DCS/MEM) which was made by sequential treatment of calf serum with sulfatase and dextran-coated charcoal (Biological Industries Beit Haemek, LTD).
MCF-7 and MDA-MB-231 cells were plated in 96 well dishes (Costar) at approximately 5,000 cells/well and 2500 cells/well respectively in 100 ul medium. One day after plating (Day 0) 100 μl of the treatment media were added.
Final volume in each well was 200 μl. Each chemical was diluted to a final concentration of 10^−3M. At day 0 compounds 1 and 8b-8m (table 1) were diluted aside and 100 μl from each dilution were added to each well. The following dilution steps were performed: 2×10^−6M (4 μl of 10^−3M in 2 mL), 2×10^−7 M (200 μl of 2×10^−6M in 2 mL), 2×10^−8M (200 μl of 2×10^−7M in 2 mL) and 2×10^−9M (200 μl of 2×10^−8M in 2 mL).
Cell proliferation was quantified by colorimetric MTT assay. The use and validity of the MTT assay in MCF-7 cells is described by Martikainen et al.
Measurement of cell viability and proliferation were based on the reduction of tetrazolium salts using the MTT kit (Biological Industries Beit Haemek, LTD) according to the manufacturer instructions. The yellow tetrazolium MTT (3-(4,5-dimethylthiazolyl-2)-2,5-diphenyltetrazolium bromide) is reduced by metabolically active cells, in part by the action of dehydrogenase enzymes, to generate reducing equivalents such as NADH and NADPH. The resulting intracellular purple formazan can be solubilized and quantified by spectrophotometric means. The MTT Reagent yields low background absorbance values in the absence of cells. MTT assay was used to evaluate cell number in each well.

[1] = Homo sapiens, MCF7, MCF-7 breast cancer cells, read-out: IC50 value
[2] = Homo sapiens, MCF7, cell proliferation effect on MCF-7 cell line (estrogen dependent cells), MTT, NA = Not Active, read-out: IC50

SMILES	estrogenic activity relative to natural compound 1	IC50 [1]	IC50 [2]	further results
O=c1oc2cc(O)ccc2c2oc3ccc(O)cc3c12 [Compound 8f]	at least one order of magnitude less active	–	–	–
CC(=O)Nc1ccc2c(c1)oc1c3ccc(O)cc3oc(=O)c21 [Compound 8g]	–	30 nM	30 nM	–
O=c1oc2ccccc2c2oc3cc(O)ccc3c12 [Compound 8d, 3-hydroxycoumestn]	at least one order of magnitude less active	–	568 nM	proliferative effect on the MCF-7 cells (ER-positive breast cancer line MCF-7, result in words): did not showed any proliferative effect
O=c1oc2cc(O)ccc2c2oc3ccc(Br)cc3c12 [Compound 8i]	–	107 nM	107 nM	–
O=c1oc2cc(O)ccc2c2oc3ccc(F)cc3c12 [Compound 8j]	–	–	220 nM	–
O=c1oc2cc(O)ccc2c2oc3ccc4ccccc4c3c12 [Compound 8m, napthocoumestrol]	–	180 nM	180 nM	–
O=c1oc2cc(O)ccc2c2oc3ccc(C(F)(F)F)cc3c12 [Compound 8l, 3-trifluoromethylcoumestrol]	–	170 nM	170 nM	–
O=c1oc2ccccc2c2oc3ccccc3c12 [Compound 8b]	at least one order of magnitude less active	–	–	–
CCOC(=O)c1ccc2oc3c4ccc(O)cc4oc(=O)c3c2c1 [Compound 8k]	–	58 nM	58 nM	–
O=c1oc2cc(O)ccc2c2oc3cc(O)ccc3c12 [Compound 1, coumestrol]	–	–	–	IC50 (cell proliferation effect on MCF-7 cell line (estrogen dependent cells), MTT, NA = Not Active, read-out: IC50): 73 nM
O=c1oc2cc(O)ccc2c2oc3cc(O)c(O)cc3c12 [Compound 8c, 8-hydroxycoumestrol]	at least one order of magnitude less active	–	–	–
CC(=O)Nc1ccc2oc3c4ccc(O)cc4oc(=O)c3c2c1 [Compound 8h, 8-acetamidecoumestrol]	–	< 1 nM	9 nM	–
